In PubChem BioAssay (NCI):
Several values for one entry are separate records, joined by “and”; a condition that tells them apart may be missing. Equal entries are not always repeated.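 In this assay, cells in 96-well plates receive the compound at five concentrations for 48 hours. Endpoints are linearly interpolated between the surrounding concentrations. GI50: concentration for 50% inhibition of growth. The concentration for full growth arrest is given as TGI.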

What was measured:
Assay in all cases: growth of human tumour cells (NCI), 48 h
HCC-2998 colon = tested on: HCC-2998 colon
SK-MEL-28 melanoma = tested on: SK-MEL-28 melanoma
HL-60(TB) leukemia = tested on: HL-60(TB) leukemia
HT29 colon = tested on: HT29 colon
NCI-H522 lung = tested on: NCI-H522 lung
SF-268 CNS = tested on: SF-268 CNS
OVCAR-5 ovarian = tested on: OVCAR-5 ovarian
NCI-H460 lung = tested on: NCI-H460 lung
UACC-62 melanoma = tested on: UACC-62 melanoma
DU-145 prostate = tested on: DU-145 prostate

SMILES | GI50 (HCC-2998 colon) [µM] | TGI (HCC-2998 colon) [µM] | GI50 (SK-MEL-28 melanoma) [µM] | TGI (SK-MEL-28 melanoma) [µM] | GI50 (HL-60(TB) leukemia) [µM] | TGI (HL-60(TB) leukemia) | GI50 (HT29 colon) [µM] | TGI (HT29 colon) [µM] | GI50 (NCI-H522 lung) [µM] | TGI (NCI-H522 lung) | GI50 (SF-268 CNS) [µM] | TGI (SF-268 CNS) | GI50 (OVCAR-5 ovarian) [µM] | TGI (OVCAR-5 ovarian) [µM] | GI50 (NCI-H460 lung) [µM] | TGI (NCI-H460 lung) [µM] | GI50 (UACC-62 melanoma) [µM] | TGI (UACC-62 melanoma) [µM] | GI50 (DU-145 prostate) | TGI (DU-145 prostate) [µM]
CCCN1C(=O)N(CCC)C2C1NC(=S)N2/N=C/C=C/c1ccccc1OC (centres undefined) | 2.36 | 65.1 | 6.26 | > 100 | 0.337 | 1.71 µM | 0.386 | 17.8 | 0.336 | 12.7 µM | 1.15 | 53.4 µM | 3.61 | > 100 | 0.418 | 16.5 | 0.599 | 47 | 0.557 µM | > 100
Oc1cccnc1[Se] | – | – | – | > 100 | – | > 100 µM | – | > 100 | – | > 100 µM | – | > 100 µM | – | > 100 | – | > 100 | – | > 100 | – | > 100
CCn1c2ccccc2c2cc(NC(=O)Nc3ccc([N+](=O)[O-])cc3C)ccc21 | 4.25 | > 100 | 5.33 | 26.2 | 1.06 | 5.85 µM | 3.01 | 15.6 | 1.96 | 7.64 µM | 12.2 | > 100 µM | 22.5 | > 100 | 3.09 | 14.8 | 5.76 | > 100 | 5.38 µM | > 100
O=C(CSc1nc2ccccc2nc1-c1ccccc1)Nc1ccc(F)cc1 | 49.6 | > 100 | 63.9 | > 100 | 66.9 | > 100 µM | 21.5 | 96.5 | 24.2 | > 100 µM | 41.6 | > 100 µM | > 100 | > 100 | 60.7 | > 100 | 48.5 | > 100 | 51 µM | > 100
COc1cc(-c2cc(-c3cc4c([nH]c5ccccc54)c(-c4cc(OC)c(OC)c(OC)c4)n3)cc(-c3ccccc3)n2)cc(OC)c1OC | 7.3 | > 100 | 4.3 | 30.2 | 3.09 | 11.3 µM | 4.03 | 25.5 | 2.32 | 8.01 µM | 4.96 | > 100 µM | 25.7 | > 100 | 3.37 | 18.1 | 2.9 | 18 | 11 µM | > 100
NCCNc1c2c(c(NCCN)c3[nH]ccc13)C(=O)c1ccccc1C2=O | < 0.01 | 0.093 | 0.439 | 1.8 | 0.132 | 0.47 µM | 0.0527 | 0.634 | 1.9 | > 100 µM | 0.17 | 0.662 µM | 0.279 | 0.96 | 0.766 | 2.88 | 0.0842 | 0.372 | 0.694 µM | 2.4
O=C(O)Cc1cc(Cl)ccc1O | – | > 100 | – | > 100 | – | > 100 µM | – | > 100 | – | > 100 µM | – | > 100 µM | – | > 100 | – | > 100 | – | > 100 | – | > 100
COc1ccc(Nc2nnc(-c3cc(O)ccc3O)s2)cc1 | – | – | 27.1 | > 50 | 4.57 | > 50 µM | > 50 | > 50 | 16.1 | > 50 µM | 16.3 | > 50 µM | > 50 | > 50 | 40.4 | > 50 | 9.89 | 20.8 | > 50 µM | > 50
C=C(Cl)C(Br)(CCl)CCC(Br)C(C)(C)Cl (centres undefined) | – | 30.5 | 5.88 | 14.2 | – | 5.19 µM | – | 4.23 | 2.82 | 9.26 µM and 6.43 µM | – | 8.32 µM and 8.82 µM | – | 19.4 | – | 20.7 | 2.17 | 6.83 | – | 26.7
COc1ccc(-c2nn(-c3ccc(NC(=O)c4ccc(Cl)c(Cl)c4)cc3)cc2-c2ccncc2)cc1Cl | 1.85 | > 50 | > 50 | > 50 | 2.76 | > 50 µM | 1.21 | 3.22 | – | > 46.3 µM | 4.25 | > 50 µM | 3.24 | > 50 | 2.02 | > 50 | 1.78 | > 38.7 | > 50 µM | > 50
Nc1c(C(=O)Nc2ccncc2)sc2nc3c(cc12)CCCCCCCC3 | 0.9 | 1.63 | 0.916 | 1.65 | 0.948 | 2.19 µM | 0.969 | 1.79 | – | – | 0.954 | 1.74 µM | 0.897 | 1.64 | 0.995 | 1.83 | 0.885 | 1.67 | 0.944 µM | 1.72
CCSc1ncnc2c1ncn2C1OC(CO)C(O)C1O (centres undefined) | 0.203 | 7.35 | > 48.3 | > 100 | 0.354 | 31.1 µM | 0.229 | > 100 | 0.648 | > 100 µM | 1.02 | > 100 µM | 0.65 | > 100 | 0.6 | > 100 | 1.48 | > 100 | 0.129 µM | 32.5
O=C1/C(=C/c2cccc(Cl)c2Cl)N=C(c2ccccc2)N1C1CC1 | – | – | – | – | 15.6 | 41.4 µM | 18.2 | > 50 | 19.8 | > 50 µM | 10.3 | 22.3 µM | 10.4 | 21.1 | 15.3 | > 50 | 9.2 | 19.5 | 12.1 µM | 29.4
C=CCCCCOc1ccccc1-c1cnc(OCCCCC=C)n1C | 6.57 | 21.3 | 4.51 | 31.6 | 2.17 | 7.14 µM | 3.22 | 10.2 | 2.59 | 6.72 µM | 4.21 | 21.3 µM | 5.22 | 23.1 | – | – | 3.93 | 17.4 | 5.68 µM | 22.3
[Cl][Hg][c]1cc[c]([Hg][Cl])o1 | 17 | 42.9 | 5.6 | 19.9 | 2.39 | 7.03 µM | 2.99 | 9.88 | 0.367 | 1.69 µM | 2.77 | 12.3 µM | 7.17 | 23.9 | 10 | 34.1 | 3.46 | 16.2 | 3.81 µM | 16.1
COc1ccc(-c2nc3ccc(-c4nc5ccc(N6CCN(c7ccccc7)CC6)cc5[nH]4)cc3[nH]2)cc1OC | 1.72 | 3.34 | 1.66 | 3.24 | 1.78 | 10.2 µM | 1.2 | 2.68 | 1.81 | 4.15 µM | 2.12 | 4.68 µM | 2.21 | 4.48 | 1.73 | 3.66 | 1.41 | 3.63 | 1.83 µM | 3.46
Cc1ccc(NC(=O)CC2CC2)cc1-c1ccc(C(=O)NCC2CC2)cc1 | > 25 | > 25 | > 25 | > 25 | > 24.2 | > 25 µM | > 25 | > 25 | > 25 | > 25 µM | > 25 | > 25 µM | > 25 | > 25 | > 25 | > 25 | > 21.7 | > 25 | > 25 µM | > 25
COc1cc(F)ccc1-c1ncnc(Nc2cccc(CS(C)(=N)=O)c2)n1 (centres undefined) | 2.54 | > 100 | 1.05 | > 100 | 0.392 | 3.14 µM | 0.642 | 6.39 | 1.6 | 6.34 µM | 0.707 | > 100 µM | 0.827 | > 100 | 1.79 | > 100 | 0.361 | 3.4 | 0.784 µM | > 100
O=C1Nc2ccccc2/C1=N\[O-].O=C1Nc2ccccc2/C1=N\[O-].[Cu+2] | > 100 | > 100 | > 100 | > 100 | > 100 | > 100 µM | > 100 | > 100 | > 100 | > 100 µM | > 100 | > 100 µM | > 100 | > 100 | > 100 | > 100 | > 100 | > 100 | > 100 µM | > 100
Nc1nc(/C=C\c2ccc([N+](=O)[O-])s2)nc(N2CCCC2)n1 | 4.86 | 12.8 | 9.33 | 23.6 | 5.39 | 25.3 µM | 2.97 | 14.8 | 2.55 | 8.67 µM | 2.37 | 13.6 µM | 15.7 | 30.7 | 3.68 | 16.1 | 1.43 | 8.67 | 2.47 µM | 16.4
CNCC#Cc1c(F)ccc2c1/C(=C/c1[nH]ccc1OC)C(=O)N2 | 0.398 | 1.63 | 0.329 | 2.88 | 0.0722 | 0.26 µM | 0.133 | 1.82 | 0.299 | 1.17 µM | 0.279 | 2.1 µM | 0.323 | 3.16 | 0.124 | 2.44 | 0.249 | 0.815 | 0.136 µM | 2.92
Cc1c2c(C#N)nccc2c(C)c2c1c1ccccc1n2Cc1ccccc1 | – | > 100 | – | > 100 | – | > 100 µM | – | > 100 | – | – | – | > 100 µM | – | > 100 | – | > 100 | – | > 100 | – | > 100
COc1cc(NCc2ccc3nc(N)nc(N)c3c2C)cc(OC)c1OC (tested in a mixture with another compound) | 0.00957 | – | – | 50.6 | 0.000746 | 29.4 µM and 26.3 µM | – | 41.9 | – | – | – | 66.8 µM | 0.0287 | 35.9 | 0.000169 | 34.8 | – | – | 0.172 µM and 0.025 µM | 38.2
C=C(C)[C@@H]1CC[C@]2(C)[C@H](CC=C3[C@@H]4CC(C)(C)CC[C@]4(C(N)=O)CC[C@]32C)[C@@]1(C)CCC#N | 4.02 | > 100 | 4.17 | > 100 | – | – | 3.48 | > 100 | 3.07 | > 100 µM | 5.28 | > 100 µM | 4.35 | > 100 | 2.93 | 8.62 | 2.59 | 9.15 | 4.8 µM | > 100
Cc1nn(-c2ccc(Cl)cc2)c2nc3c(nc12)C(=O)c1ccccc1-3 | > 100 | > 100 | > 100 | > 100 | > 100 | > 100 µM | > 100 | > 100 | > 100 | > 100 µM | > 100 | > 100 µM | > 100 | > 100 | – | – | > 100 | > 100 | > 100 µM | > 100
Clc1ccc2[nH]cc(-c3nnnn3-c3ccccc3)c2c1 | 5.32 | 20.1 | 14.3 | > 100 | – | – | 11.9 | > 70.9 | 18.7 | > 92.5 µM | 53.1 | > 100 µM | 21.8 | > 89.8 | 20.3 | > 100 | 11.2 | > 100 | 24.5 µM | > 76.6
O=C(Nc1ccncc1)C(=O)c1cn(S(=O)(=O)c2ccc(F)cc2)c2ccccc12 | 8.57 | > 100 | 6.82 | 36.2 | – | – | 1.88 | > 100 | 0.823 | > 100 µM | 4.4 | > 100 µM | 7.96 | > 100 | 16.3 | > 100 | 3.4 | > 100 | 3.37 µM | 20.4
